Assay results as given in patent US12595253B2, “Benzamides of pyrazolylamino-pyrimidinyl derivatives, and compositions and methods thereof” (LYNK PHARMACEUTICALS CO. LTD., priority 2019, dated 2026).

Experiments:
CYP2C9 = target: T1, CYP2C9 (Homo sapiens, UniProt P11712); experiment: CYPs inhibition in pooled human liver microsomes, probe substrate Diclofenac; format: in vitro ADME
T1 construct: 0.2 mg/mL human liver microsomes was pre-incubated in 180 μL reaction mixture; from tissue; host or cells: pooled human liver microsomes
T1 sequence (P11712 whole entry): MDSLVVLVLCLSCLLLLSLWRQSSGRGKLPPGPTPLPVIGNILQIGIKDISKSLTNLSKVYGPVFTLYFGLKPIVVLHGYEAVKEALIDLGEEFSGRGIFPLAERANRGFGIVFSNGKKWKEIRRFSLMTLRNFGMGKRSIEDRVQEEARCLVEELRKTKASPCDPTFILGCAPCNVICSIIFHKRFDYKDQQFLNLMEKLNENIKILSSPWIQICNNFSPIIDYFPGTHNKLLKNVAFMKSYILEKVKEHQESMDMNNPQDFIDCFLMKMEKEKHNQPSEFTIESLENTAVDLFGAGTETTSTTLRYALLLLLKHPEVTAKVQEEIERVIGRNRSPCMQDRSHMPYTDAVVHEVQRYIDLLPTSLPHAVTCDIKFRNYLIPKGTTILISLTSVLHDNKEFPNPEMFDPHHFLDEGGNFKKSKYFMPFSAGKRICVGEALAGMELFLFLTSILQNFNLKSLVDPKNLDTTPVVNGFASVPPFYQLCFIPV
How it was run: (§1)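 Test articles pre-incubated 10 min at 37 °C with a probe-substrate cocktail in pooled human liver microsomes. Reaction then started with NADPH and run 10 min. Metabolites quantified by LC-MS/MS; IC50 from 3-parameter logistic fit of % control activity.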

CYP1A2 = target: T2, CYP1A2 (Homo sapiens, UniProt P05177); experiment: CYPs inhibition in pooled human liver microsomes, probe substrate Phenacetin; format: in vitro ADME
T2 construct: 0.2 mg/mL human liver microsomes was pre-incubated in 180 μL reaction mixture; from tissue; host or cells: pooled human liver microsomes
T2 sequence (P05177 1-516): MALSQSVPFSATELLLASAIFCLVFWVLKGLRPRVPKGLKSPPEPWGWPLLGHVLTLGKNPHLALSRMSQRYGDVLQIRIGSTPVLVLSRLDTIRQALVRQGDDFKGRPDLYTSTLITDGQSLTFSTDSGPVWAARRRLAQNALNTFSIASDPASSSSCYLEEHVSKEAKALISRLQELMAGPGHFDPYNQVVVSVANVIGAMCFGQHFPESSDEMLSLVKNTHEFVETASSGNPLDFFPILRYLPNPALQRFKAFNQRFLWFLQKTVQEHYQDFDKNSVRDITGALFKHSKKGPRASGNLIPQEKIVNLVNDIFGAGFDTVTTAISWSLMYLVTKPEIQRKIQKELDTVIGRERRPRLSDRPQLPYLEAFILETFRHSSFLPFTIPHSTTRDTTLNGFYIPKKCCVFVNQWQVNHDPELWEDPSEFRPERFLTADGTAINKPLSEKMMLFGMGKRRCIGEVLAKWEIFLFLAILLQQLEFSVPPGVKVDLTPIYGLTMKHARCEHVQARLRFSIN
How it was run: as §1

FLT3 = target: T3, FLT3 (Homo sapiens, UniProt P36888); experiment: FLT3 microfluidic kinase assay; format: biochemical
T3 construct: purchased Carna Biosciences
T3 sequence (P36888 27-993): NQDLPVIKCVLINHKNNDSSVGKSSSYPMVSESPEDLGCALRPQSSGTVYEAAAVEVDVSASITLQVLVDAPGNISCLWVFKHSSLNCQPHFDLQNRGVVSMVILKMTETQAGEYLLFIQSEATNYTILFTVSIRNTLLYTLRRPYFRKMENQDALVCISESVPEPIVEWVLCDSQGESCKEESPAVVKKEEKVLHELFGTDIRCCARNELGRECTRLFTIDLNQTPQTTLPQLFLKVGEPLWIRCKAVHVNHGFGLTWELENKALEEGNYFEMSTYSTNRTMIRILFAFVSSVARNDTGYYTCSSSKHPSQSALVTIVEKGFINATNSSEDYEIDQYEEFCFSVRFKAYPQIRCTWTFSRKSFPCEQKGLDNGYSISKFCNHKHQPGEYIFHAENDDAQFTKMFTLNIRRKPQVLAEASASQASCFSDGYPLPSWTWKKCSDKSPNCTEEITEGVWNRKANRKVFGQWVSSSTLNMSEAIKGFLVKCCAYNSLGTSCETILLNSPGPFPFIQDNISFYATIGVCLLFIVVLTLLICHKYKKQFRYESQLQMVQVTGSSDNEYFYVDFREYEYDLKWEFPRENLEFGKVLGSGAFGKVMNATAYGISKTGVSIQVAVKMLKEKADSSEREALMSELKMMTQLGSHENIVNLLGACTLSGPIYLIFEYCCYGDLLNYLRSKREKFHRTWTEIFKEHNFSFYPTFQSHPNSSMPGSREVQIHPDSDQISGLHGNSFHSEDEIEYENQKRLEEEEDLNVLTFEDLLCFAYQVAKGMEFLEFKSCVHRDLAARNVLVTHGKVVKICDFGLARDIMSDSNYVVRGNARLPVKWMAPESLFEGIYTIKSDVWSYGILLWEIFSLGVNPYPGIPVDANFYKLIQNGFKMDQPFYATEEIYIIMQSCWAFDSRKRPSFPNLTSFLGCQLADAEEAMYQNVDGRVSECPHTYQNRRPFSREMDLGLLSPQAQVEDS
Method: Compounds were tested against FLT3, FLT3ITD and FLT3D835Y.
Assay Formats: FLT3 activity was determined in the reaction buffer 50 mM HEPES, 10 mM MgCl2 and 2 mM DTT by a microfluidic assay. The phosphorylation of a FAM labeled peptide substrate was monitored in the Caliper EZ Reader II (Perkin Elmer). The assay condition for each batch of enzyme (Carna Biosciences) was optimized to obtain 10% conversion rate of peptide substrate.
The test compounds were dissolved in DMSO to a stock concentration of 10 mM. 3-fold serially diluted compounds with top concentration of 5 μM were pre-incubated with FLT3, FLT3ITD or FLT3D835Y for 10 min at ambient temperature. The final DMSO concentration of assay mixture was 1%. […] The reaction was stopped by adding 50 mM EITA. The reaction time for FLT3, FLT3ITD and FLT3D8335Y was 30 min, 40 min and 40 min, respectively.
And the well without compound but with equivalent DMSO was defined as no inhibition. The percent inhibition was calculated by the following formula. % Inhibition=(Conversionmax−Conversionsample)/(Conversionmax−Conversionmin)*100 • Conversionmax means the conversion rate in the positive well without addition of compound • Conversionmin means the conversion rate in the well without addition of enzyme • Conversionsample means the conversion rate of test compounds
The dose-response (percent inhibition) curve was plotted and IC50 values were determined by GraphPad software.

[1] = Rat colon pharmacokinetic study (plasma, colon, colon + fecal content); format: in vivo; conditions: SD rats, 10 mg/kg oral gavage; for Colon + Feces AUC: colon homogenized with fecal content; for Colon AUC: colon washed of fecal content; for AUC / Cmax / half-life: Sprague-Dawley (SD), rat; for AUC / Cmax: plasma; for half-life: in vivo
Method: The aim of this study was to obtain the pharmacokinetics of test articles in SD rats after oral administration. […] Rats were dosed with 10 mg/kg (1 mg/ml) via oral gavage. After dosing, blood and colon samples were collected at each time point (typically 0.5, 1, 3, 6, 24 hour). Blood was collected into appropriately labeled tubes containing K2EDTA as the anticoagulant. Plasma was obtained within one hour of blood collection by centrifugation at 8000g, 4-10° C. for 6 minutes, and then stored at −20° C. until analyzed by LC-MS/MS for quantification. Colon tissues were collected from exsanguinated rats at each time point. Collected colon tissue was divided into two parts. One part for the measurement of test articles in colon was washing three times by PBS to remove the fecal content before homogenization. The other part was homogenized with the fecal content for the measurement of test articles in colon and fecal content. Colon samples were homogenized in 1:5 (w/v) phosphate buffer (100 mM, pH 7.4). Homogenized samples were extracted with 3 fold volumes of acetonitrile and quantified against a standard curve with LC-MS/MS system.

IC50 (CYP2C9) [µM] | IC50 (CYP1A2) [µM] | IC50 (FLT3) [µM] | Compound | other results
3.18 | > 50 | – | CC[C@@H](C#N)NC(=O)c1ccc(-c2nc(Nc3cnn(C4CCNCC4)c3)ncc2Cl)cc1 [Example 183, (S)-4-(5-chloro-2-((1-(piperidin-4-yl)-1H-pyrazol-4-yl)amino)pyrimidin-4-yl)-N-(1-cyanopropyl)benzamide] | –
– | – | 0.00336 | CC[C@@H](C#N)NC(=O)c1ccc(-c2nc(Nc3cnn(C4CC4)c3)ncc2Cl)cc1 [Example 61, (S)-4-(5-chloro-2-((1-cyclopropyl-1H-pyrazol-4-yl)amino)pyrimidin-4-yl)-N-(1-cyanopropyl)benzamide] | –
> 50 | > 50 | – | Cc1cnc(Nc2cnn(C3CCN(C(=O)CO)CC3)c2)nc1-c1ccc(C(=O)N[C@@H](C)C#N)cc1 [Example 119, (S)—N-(1-cyanoethyl)-4-(2-((1-(1-(2-hydroxyacetyl)piperidin-4-yl)-1H-pyrazol-4-yl)amino)-5-methylpyrimidin-4-yl)benzamide] | Colon + Feces AUC [1]: 1,629,181 h*ng/g; Colon AUC [1]: 6898 ng·h/g; AUC [1]: 23.7 ng·h/mL; Cmax [1]: 16 ng/mL
19 | > 50 | – | C[C@@H](C#N)NC(=O)c1ccc(-c2nc(Nc3cnn(C4CCNCC4)c3)ncc2Cl)cc1 [Example 165, (S)-4-(5-chloro-2-((1-(piperidin-4-yl)-1H-pyrazol-4-yl)amino)pyrimidin-4-yl)-N-(1-cyanoethyl)benzamide] | –
> 50 | > 50 | – | C[C@@H](C#N)NC(=O)c1ccc(-c2nc(Nc3cnn(C4CCN(C)CC4)c3)ncc2Cl)cc1 [Example 43, (S)-4-(5-Chloro-2-((1-(1-methylpiperidin-4-yl)-1H-pyrazol-4-yl)amino)pyrimidin-4-yl)-N-(1-cyanoethyl)benzamide] | Colon + Feces AUC [1]: 559,570 h*ng/g; Colon AUC [1]: 3860 ng·h/g; AUC [1]: 0.4 ng·h/mL; Cmax [1]: 1.6 ng/mL
14.1 | > 50 | – | Cc1cnc(Nc2cnn(C3CC(C)(C)OC(C)(C)C3)c2)nc1-c1ccc(C(=O)NCC#N)cc1 [Example 113, N-(cyanomethyl)-4-(5-methyl-2-((1-(2,2,6,6-tetramethyltetrahydro-2H-pyran-4-yl)-1H-pyrazol-4-yl)amino)pyrimidin-4-yl)benzamide] | –
– | – | 1.1 | Cc1cnc(Nc2cnn(C)c2)nc1-c1ccc(C(=O)NC(C)C)cc1 [Example 223, N-isopropyl-4-(5-methyl-2-((1-methyl-1H-pyrazol-4-yl)amino)pyrimidin-4-yl)benzamide] | –
– | – | 0.00535 | N#CCNC(=O)c1ccc(-c2nc(Nc3cnn(C4CC4)c3)ncc2Cl)cc1 [Example 95, 4-(5-Chloro-2-((1-cyclopropyl-1H-pyrazol-4-yl)amino)pyrimidin-4-yl)-N-(cyanomethyl)benzamide] | –
– | – | 0.00673 | C[C@@H](C#N)NC(=O)c1ccc(-c2nc(Nc3cnn(C4CC4)c3)ncc2Cl)cc1 [Example 111, (S)-4-(5-Chloro-2-((1-cyclopropyl-1H-pyrazol-4-yl)amino)pyrimidin-4-yl)-N-(1-cyanoethyl)benzamide] | –
– | – | 0.0109 | Cn1cc(Nc2ncc(Cl)c(-c3ccc(C(=O)NCC#N)cc3)n2)cn1 [Example 34, 4-(5-Chloro-2-((1-methyl-1H-pyrazol-4-yl)amino)pyrimidin-4-yl)-N-(cyanomethyl)benzamide] | –
> 50 | > 50 | – | CC[C@@H](C#N)NC(=O)c1ccc(-c2nc(Nc3cnn(C4CCN(C)CC4)c3)ncc2C)cc1 [Example 184, (S)—N-(1-Cyanopropyl)-4-(5-methyl-2-((1-(1-methylpiperidin-4-yl)-1H-pyrazol-4-yl)amino)pyrimidin-4-yl)benzamide] | Colon + Feces AUC [1]: 827,222 h*ng/g; Colon AUC [1]: 3,961 h*ng/g; half-life [1]: 0.5 h; AUC [1]: 8.9 ng·h/mL; Cmax [1]: 9.3 ng/mL
> 50 | 45.8 | – | Cc1cnc(Nc2cnn(CC#N)c2)nc1-c1ccc(C(=O)NCC#N)cc1 [Example 4, N-(Cyanomethyl)-4-(2-((1-(cyanomethyl)-1H-pyrazol-4-yl)amino)-5-methylpyrimidin-4-yl)benzamide] | Colon + Feces AUC [1]: 545,501 h*ng/g; Colon AUC [1]: 6,623 h*ng/g; half-life [1]: 1.6 h; AUC [1]: 96 ng·h/mL; Cmax [1]: 68.8 ng/mL
– | – | 0.0236 | C[C@@H](C#N)NC(=O)c1ccc(-c2nc(Nc3cnn(C)c3)ncc2Cl)cc1 [Example 125, (S)-4-(5-chloro-2-((1-methyl-1H-pyrazol-4-yl)amino)pyrimidin-4-yl)-N-(1-cyanoethyl)benzamide] | –
– | – | 1.89 | CCNC(=O)c1ccc(-c2nc(Nc3cnn(C)c3)ncc2C)cc1 [Example 222, N-ethyl-4-(5-methyl-2-((1-methyl-1H-pyrazol-4-yl)amino)pyrimidin-4-yl)benzamide] | –
– | – | 1.2 | CNC(=O)c1ccc(-c2nc(Nc3cnn(C)c3)ncc2C)cc1 [Example 10, N-Methyl-4-(5-methyl-2-((1-methyl-1H-pyrazol-4-yl)amino)pyrimidin-4-yl)benzamide] | –
